Source: the kinase profiling compilation of Christmann-Franck et al. (2016)

How the values were obtained:
Assay in all cases: radiometric filter-binding kinase assay, Kinase HotSpot
Settings in all cases: compound 0.5 µM; ATP 10 µM
RPS6KA2 KD1 KD2 (human) = RPS6KA2 KD1 KD2 (human) (UniProt Q15349)
AXL (human) = AXL (human) (UniProt P30530)
MAP4K5 (human) = MAP4K5 (human) (UniProt Q9Y4K4)
PAK3 (human) = PAK3 (human) (UniProt O75914)
STK33 (human) = STK33 (human) (UniProt Q9BYT3)
PRKCE (human) = PRKCE (human) (UniProt Q02156)
CDK9 CCNK (human) = CDK9 CCNK (human) (UniProt O75909+P50750)
PRKCG (human) = PRKCG (human) (UniProt P05129)
STK11 (human) = STK11 (human) (UniProt Q15831)
INSR (human) = INSR (human) (UniProt P06213)
IKBKE (human) = IKBKE (human) (UniProt Q14164)
Chain of IKBKE (human) (Q14164 whole entry, looked up): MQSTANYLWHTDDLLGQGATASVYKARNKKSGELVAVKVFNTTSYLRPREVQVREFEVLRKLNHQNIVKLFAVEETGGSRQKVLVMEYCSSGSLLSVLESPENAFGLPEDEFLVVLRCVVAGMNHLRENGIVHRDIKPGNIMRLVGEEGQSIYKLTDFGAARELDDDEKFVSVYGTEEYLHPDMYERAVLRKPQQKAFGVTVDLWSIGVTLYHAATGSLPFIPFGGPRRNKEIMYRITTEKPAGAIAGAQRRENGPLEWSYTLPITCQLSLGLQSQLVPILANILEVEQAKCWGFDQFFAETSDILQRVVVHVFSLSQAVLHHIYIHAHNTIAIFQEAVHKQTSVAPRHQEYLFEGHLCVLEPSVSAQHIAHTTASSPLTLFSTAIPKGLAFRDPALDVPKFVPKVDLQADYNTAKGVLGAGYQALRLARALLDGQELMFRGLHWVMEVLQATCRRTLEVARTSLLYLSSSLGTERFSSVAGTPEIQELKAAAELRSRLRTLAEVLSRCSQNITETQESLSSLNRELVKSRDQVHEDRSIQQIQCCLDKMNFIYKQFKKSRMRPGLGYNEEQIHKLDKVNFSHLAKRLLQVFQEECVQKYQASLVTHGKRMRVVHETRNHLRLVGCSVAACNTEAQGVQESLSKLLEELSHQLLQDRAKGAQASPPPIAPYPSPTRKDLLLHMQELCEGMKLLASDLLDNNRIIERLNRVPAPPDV

CAMK1D (human) = CAMK1D (human) (UniProt Q8IU85)
AURKB (human) = AURKB (human) (UniProt Q96GD4)
CDK9 CCNT1 (human) = CDK9 CCNT1 (human) (UniProt P50750+O60563)
TNK2 (human) = TNK2 (human) (UniProt Q07912)
ULK1 (human) = ULK1 (human) (UniProt O75385)
PRKG2 (human) = PRKG2 (human) (UniProt Q13237)
SRPK2 (human) = SRPK2 (human) (UniProt P78362)
HCK (human) = HCK (human) (UniProt P08631)
Chain of HCK (human) (P08631 whole entry, looked up): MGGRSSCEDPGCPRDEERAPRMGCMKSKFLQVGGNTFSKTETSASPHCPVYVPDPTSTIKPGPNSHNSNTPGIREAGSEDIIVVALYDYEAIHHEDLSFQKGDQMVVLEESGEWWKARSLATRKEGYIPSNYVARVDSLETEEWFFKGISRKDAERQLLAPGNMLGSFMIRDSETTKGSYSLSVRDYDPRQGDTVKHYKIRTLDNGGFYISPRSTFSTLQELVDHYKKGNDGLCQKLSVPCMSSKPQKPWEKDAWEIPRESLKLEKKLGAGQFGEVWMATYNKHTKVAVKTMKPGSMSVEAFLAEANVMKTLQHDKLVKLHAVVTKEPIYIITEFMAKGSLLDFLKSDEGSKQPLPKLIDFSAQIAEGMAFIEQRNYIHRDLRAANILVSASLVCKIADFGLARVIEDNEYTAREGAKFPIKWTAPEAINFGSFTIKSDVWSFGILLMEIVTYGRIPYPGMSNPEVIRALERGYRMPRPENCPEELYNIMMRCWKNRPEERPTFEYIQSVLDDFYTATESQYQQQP

CSNK1G1 (human) = CSNK1G1 (human) (UniProt Q9HCP0)
MAPKAPK2 (human) = MAPKAPK2 (human) (UniProt P49137)
Chain of MAPKAPK2 (human) (P49137 whole entry, looked up): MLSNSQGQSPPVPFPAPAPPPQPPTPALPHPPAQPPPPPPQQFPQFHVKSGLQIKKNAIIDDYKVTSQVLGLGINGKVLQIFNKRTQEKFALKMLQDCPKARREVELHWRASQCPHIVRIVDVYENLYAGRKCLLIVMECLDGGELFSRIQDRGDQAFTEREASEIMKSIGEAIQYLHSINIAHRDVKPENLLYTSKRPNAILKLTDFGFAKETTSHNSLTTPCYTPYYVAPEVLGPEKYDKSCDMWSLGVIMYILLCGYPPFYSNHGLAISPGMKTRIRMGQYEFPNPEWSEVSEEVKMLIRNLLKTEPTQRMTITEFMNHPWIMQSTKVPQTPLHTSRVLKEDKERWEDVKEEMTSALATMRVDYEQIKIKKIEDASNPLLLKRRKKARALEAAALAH

JAK3 JH1 JH2 (human) = JAK3 JH1 JH2 (human) (UniProt P52333)
PBK (human) = PBK (human) (UniProt Q96KB5)
TXK (human) = TXK (human) (UniProt P42681)
Chain of TXK (human) (P42681 whole entry, looked up): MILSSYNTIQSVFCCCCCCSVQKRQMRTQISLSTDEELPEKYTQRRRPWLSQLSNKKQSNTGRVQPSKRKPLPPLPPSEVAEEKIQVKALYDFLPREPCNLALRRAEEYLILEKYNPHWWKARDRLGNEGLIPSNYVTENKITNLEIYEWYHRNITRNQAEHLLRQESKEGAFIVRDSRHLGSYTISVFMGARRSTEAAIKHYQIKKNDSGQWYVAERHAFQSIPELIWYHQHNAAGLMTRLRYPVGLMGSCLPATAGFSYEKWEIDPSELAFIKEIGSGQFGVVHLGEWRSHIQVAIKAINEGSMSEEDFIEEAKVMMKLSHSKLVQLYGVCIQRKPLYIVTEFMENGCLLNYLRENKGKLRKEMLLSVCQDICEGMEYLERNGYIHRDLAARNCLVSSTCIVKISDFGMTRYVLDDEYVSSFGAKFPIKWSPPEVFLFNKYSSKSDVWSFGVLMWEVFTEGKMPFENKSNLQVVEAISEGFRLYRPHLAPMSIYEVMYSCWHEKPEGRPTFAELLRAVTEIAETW

FLT3 (human) = FLT3 (human) (UniProt P36888)
SRPK3 (human) = SRPK3 (human) (UniProt Q9UPE1)
TSSK1B (human) = TSSK1B (human) (UniProt Q9BXA7)
MAP3K8 (human) = MAP3K8 (human) (UniProt P41279)
Chain of MAP3K8 (human) (P41279 whole entry, looked up): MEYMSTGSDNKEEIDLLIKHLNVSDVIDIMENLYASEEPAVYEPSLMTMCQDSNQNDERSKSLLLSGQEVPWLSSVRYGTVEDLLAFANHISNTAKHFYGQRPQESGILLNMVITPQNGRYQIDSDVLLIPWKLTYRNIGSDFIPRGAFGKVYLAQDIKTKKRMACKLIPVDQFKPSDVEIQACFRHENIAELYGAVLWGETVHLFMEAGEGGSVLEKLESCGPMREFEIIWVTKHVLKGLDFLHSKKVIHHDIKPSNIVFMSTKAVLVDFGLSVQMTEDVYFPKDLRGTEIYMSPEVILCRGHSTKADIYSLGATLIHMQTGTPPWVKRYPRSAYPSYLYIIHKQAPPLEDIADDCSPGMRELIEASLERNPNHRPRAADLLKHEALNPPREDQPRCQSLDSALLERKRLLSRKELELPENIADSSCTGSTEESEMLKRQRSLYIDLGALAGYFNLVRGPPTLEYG

TEK (human) = TEK (human) (UniProt Q02763)
PAK1 (human) = PAK1 (human) (UniProt Q13153)
MAP3K9 (human) = MAP3K9 (human) (UniProt P80192)
FYN (human) = FYN (human) (UniProt P06241)
CDK5 CDK5R1 p35 (human) = CDK5 CDK5R1 p35 (human) (UniProt Q00535+Q15078)
MAP3K5 (human) = MAP3K5 (human) (UniProt Q99683)
TGFBR1 (human) = TGFBR1 (human) (UniProt P36897)
NEK7 (human) = NEK7 (human) (UniProt Q8TDX7)
PLK2 (human) = PLK2 (human) (UniProt Q9NYY3)
MARK3 (human) = MARK3 (human) (UniProt P27448)
DAPK1 (human) = DAPK1 (human) (UniProt P53355)
ACVR1B (human) = ACVR1B (human) (UniProt P36896)
Chain of ACVR1B (human) (P36896 whole entry, looked up): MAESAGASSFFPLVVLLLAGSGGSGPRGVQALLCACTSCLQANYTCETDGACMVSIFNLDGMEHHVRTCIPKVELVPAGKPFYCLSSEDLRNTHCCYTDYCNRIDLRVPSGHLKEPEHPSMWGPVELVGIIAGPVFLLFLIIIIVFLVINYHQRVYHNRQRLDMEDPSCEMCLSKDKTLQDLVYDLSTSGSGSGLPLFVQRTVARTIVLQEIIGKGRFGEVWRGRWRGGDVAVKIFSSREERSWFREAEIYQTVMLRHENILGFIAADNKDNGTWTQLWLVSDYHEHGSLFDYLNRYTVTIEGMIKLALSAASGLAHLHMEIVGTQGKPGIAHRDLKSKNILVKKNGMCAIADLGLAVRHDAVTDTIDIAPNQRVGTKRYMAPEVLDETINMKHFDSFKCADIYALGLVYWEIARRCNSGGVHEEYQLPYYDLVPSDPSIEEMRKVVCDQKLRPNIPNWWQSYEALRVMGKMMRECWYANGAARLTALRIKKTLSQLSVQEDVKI

IGF1R (human) = IGF1R (human) (UniProt P08069)
CLK1 (human) = CLK1 (human) (UniProt P49759)
Chain of CLK1 (human) (P49759 whole entry, looked up): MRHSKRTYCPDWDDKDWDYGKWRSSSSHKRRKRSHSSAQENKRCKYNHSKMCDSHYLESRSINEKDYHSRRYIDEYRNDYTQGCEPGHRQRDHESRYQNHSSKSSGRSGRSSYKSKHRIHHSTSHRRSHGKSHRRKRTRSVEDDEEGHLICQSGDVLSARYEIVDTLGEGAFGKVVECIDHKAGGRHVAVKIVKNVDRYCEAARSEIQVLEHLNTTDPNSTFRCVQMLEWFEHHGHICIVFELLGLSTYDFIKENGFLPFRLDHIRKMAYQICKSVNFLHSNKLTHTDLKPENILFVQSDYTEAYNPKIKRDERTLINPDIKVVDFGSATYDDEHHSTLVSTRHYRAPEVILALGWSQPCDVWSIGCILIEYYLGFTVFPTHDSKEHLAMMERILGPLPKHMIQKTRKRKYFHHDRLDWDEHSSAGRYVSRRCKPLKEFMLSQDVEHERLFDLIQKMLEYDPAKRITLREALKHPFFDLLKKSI

Chain of RPS6KA2 KD1 KD2 (human) (Q15349 whole entry, looked up): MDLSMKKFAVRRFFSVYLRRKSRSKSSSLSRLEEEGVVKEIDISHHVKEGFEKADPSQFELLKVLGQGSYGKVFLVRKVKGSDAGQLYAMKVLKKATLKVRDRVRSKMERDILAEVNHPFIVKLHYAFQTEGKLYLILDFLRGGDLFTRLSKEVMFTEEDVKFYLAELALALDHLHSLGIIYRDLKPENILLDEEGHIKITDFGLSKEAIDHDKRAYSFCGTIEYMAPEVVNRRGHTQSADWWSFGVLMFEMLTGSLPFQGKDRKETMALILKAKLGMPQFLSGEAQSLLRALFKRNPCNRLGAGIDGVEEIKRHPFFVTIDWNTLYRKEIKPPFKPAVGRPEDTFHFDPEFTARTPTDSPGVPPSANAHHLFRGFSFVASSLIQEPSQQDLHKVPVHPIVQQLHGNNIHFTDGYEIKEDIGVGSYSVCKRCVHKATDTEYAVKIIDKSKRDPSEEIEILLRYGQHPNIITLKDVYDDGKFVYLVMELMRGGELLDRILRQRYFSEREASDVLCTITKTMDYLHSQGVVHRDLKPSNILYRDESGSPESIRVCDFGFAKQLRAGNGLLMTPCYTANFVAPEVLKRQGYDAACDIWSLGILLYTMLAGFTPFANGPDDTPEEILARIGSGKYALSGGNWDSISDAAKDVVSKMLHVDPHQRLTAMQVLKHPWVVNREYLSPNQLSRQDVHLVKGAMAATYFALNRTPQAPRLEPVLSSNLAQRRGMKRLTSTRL
Chain of STK33 (human) (Q9BYT3 whole entry, looked up): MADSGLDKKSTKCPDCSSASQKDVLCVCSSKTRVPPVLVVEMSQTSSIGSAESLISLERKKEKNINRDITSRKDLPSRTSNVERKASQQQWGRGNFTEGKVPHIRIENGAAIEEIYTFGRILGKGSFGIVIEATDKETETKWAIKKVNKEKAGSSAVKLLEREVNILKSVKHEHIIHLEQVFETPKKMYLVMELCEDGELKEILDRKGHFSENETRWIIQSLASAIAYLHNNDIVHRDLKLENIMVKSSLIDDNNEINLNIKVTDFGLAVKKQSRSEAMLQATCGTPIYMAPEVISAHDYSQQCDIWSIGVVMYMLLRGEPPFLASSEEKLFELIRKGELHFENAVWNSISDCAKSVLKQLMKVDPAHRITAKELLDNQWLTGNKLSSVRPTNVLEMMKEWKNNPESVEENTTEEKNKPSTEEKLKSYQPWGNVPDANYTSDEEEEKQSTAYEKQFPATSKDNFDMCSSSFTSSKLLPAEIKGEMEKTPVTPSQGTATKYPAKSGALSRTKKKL

COc1cc2c(cc1OC)-c1[nH]nc(Nc3cccc(F)c3)c1C2 gave a residual activity (RPS6KA2 KD1 KD2 (human)) of 91.4%, a residual activity (AXL (human)) of 96.1% and a residual activity (MAP4K5 (human)) of 89%. It also gave a residual activity (PAK3 (human)) of 93.1%, a residual activity (STK33 (human)) of 99.5% and a residual activity (PRKCE (human)) of 87.9%. The residual activity (CDK9 CCNK (human)) was 91.9%, the residual activity (PRKCG (human)) was 102% and the residual activity (STK11 (human)) was 104%. The residual activity (INSR (human)) was 101%, the residual activity (IKBKE (human)) was 93.3% and the residual activity (CAMK1D (human)) was 89.8%. It also gave a residual activity (AURKB (human)) of 79.2%, a residual activity (CDK9 CCNT1 (human)) of 97.6% and a residual activity (TNK2 (human)) of 15.1%. It also gave a residual activity (ULK1 (human)) of 103%, a residual activity (PRKG2 (human)) of 92.5% and a residual activity (SRPK2 (human)) of 87.8%. For the same molecule, the residual activity (HCK (human)) was 61.9%, the residual activity (CSNK1G1 (human)) was 77.8% and the residual activity (MAPKAPK2 (human)) was 97.2%. The residual activity (JAK3 JH1 JH2 (human)) was 98.6%, the residual activity (PBK (human)) was 86.8% and the residual activity (TXK (human)) was 60.6%. The residual activity (FLT3 (human)) was 25%, the residual activity (SRPK3 (human)) was 99.7% and the residual activity (TSSK1B (human)) was 71.7%. For the same molecule, the residual activity (MAP3K8 (human)) was 99.9%, the residual activity (TEK (human)) was 92.5% and the residual activity (PAK1 (human)) was 96.9%. For the same molecule, the residual activity (MAP3K9 (human)) was 90%, the residual activity (FYN (human)) was 73.4% and the residual activity (CDK5 CDK5R1 p35 (human)) was 102%. The residual activity (MAP3K5 (human)) was 99.9%, the residual activity (TGFBR1 (human)) was 101% and the residual activity (NEK7 (human)) was 100%. The residual activity (PLK2 (human)) was 97.1%, the residual activity (MARK3 (human)) was 69.9% and the residual activity (DAPK1 (human)) was 90.7%. For the same molecule, the residual activity (ACVR1B (human)) was 92.9%, the residual activity (IGF1R (human)) was 93.9% and the residual activity (CLK1 (human)) was 102%.

Work on O=C1NC(=O)c2cc(Nc3ccc(F)cc3)c(Nc3ccc(F)cc3)cc21 yielded a residual activity (RPS6KA2 KD1 KD2 (human)) of 98.7%, a residual activity (AXL (human)) of 104% and a residual activity (MAP4K5 (human)) of 89.5%. It also gave a residual activity (PAK3 (human)) of 99.4%, a residual activity (STK33 (human)) of 99.3% and a residual activity (PRKCE (human)) of 97.8%. It also gave a residual activity (CDK9 CCNK (human)) of 90.8%, a residual activity (PRKCG (human)) of 102% and a residual activity (STK11 (human)) of 98.2%. It also gave a residual activity (INSR (human)) of 98.3%, a residual activity (IKBKE (human)) of 100% and a residual activity (CAMK1D (human)) of 78.1%. It also gave a residual activity (AURKB (human)) of 99.7%, a residual activity (CDK9 CCNT1 (human)) of 95.4% and a residual activity (TNK2 (human)) of 93.2%. For the same molecule, the residual activity (ULK1 (human)) was 102%, the residual activity (PRKG2 (human)) was 83.3% and the residual activity (SRPK2 (human)) was 92.3%. The residual activity (HCK (human)) was 88.3%, the residual activity (CSNK1G1 (human)) was 96.3% and the residual activity (MAPKAPK2 (human)) was 95.7%. It also gave a residual activity (JAK3 JH1 JH2 (human)) of 93.9%, a residual activity (PBK (human)) of 88.4% and a residual activity (TXK (human)) of 84.1%. For the same molecule, the residual activity (FLT3 (human)) was 91.5%, the residual activity (SRPK3 (human)) was 98% and the residual activity (TSSK1B (human)) was 90.2%. The residual activity (MAP3K8 (human)) was 96.3%, the residual activity (TEK (human)) was 97.6% and the residual activity (PAK1 (human)) was 95.5%. For the same molecule, the residual activity (MAP3K9 (human)) was 102%, the residual activity (FYN (human)) was 99.4% and the residual activity (CDK5 CDK5R1 p35 (human)) was 98.5%. The residual activity (MAP3K5 (human)) was 96.6%, the residual activity (TGFBR1 (human)) was 98.1% and the residual activity (NEK7 (human)) was 103%. It also gave a residual activity (PLK2 (human)) of 99.6%, a residual activity (MARK3 (human)) of 90.8% and a residual activity (DAPK1 (human)) of 81.3%. The residual activity (ACVR1B (human)) was 94.2%, the residual activity (IGF1R (human)) was 102% and the residual activity (CLK1 (human)) was 102%.

O=C1NC(=O)c2c1c1c3ccccc3[nH]c1c1[nH]c3cc(Br)ccc3c21 gave a residual activity (RPS6KA2 KD1 KD2 (human)) of 37.9%, a residual activity (AXL (human)) of 82.9% and a residual activity (MAP4K5 (human)) of 42.3%. It also gave a residual activity (PAK3 (human)) of 97.7%, a residual activity (STK33 (human)) of 71.9% and a residual activity (PRKCE (human)) of 95.7%. For the same molecule, the residual activity (CDK9 CCNK (human)) was 82.7%, the residual activity (PRKCG (human)) was 76.6% and the residual activity (STK11 (human)) was 90.2%. It also gave a residual activity (INSR (human)) of 86.4%, a residual activity (IKBKE (human)) of 83.4% and a residual activity (CAMK1D (human)) of 92.2%. It also gave a residual activity (AURKB (human)) of 44.3%, a residual activity (CDK9 CCNT1 (human)) of 87.5% and a residual activity (TNK2 (human)) of 97.4%. It also gave a residual activity (ULK1 (human)) of 99.2%, a residual activity (PRKG2 (human)) of 29.7% and a residual activity (SRPK2 (human)) of 96.2%. It also gave a residual activity (HCK (human)) of 92.4%, a residual activity (CSNK1G1 (human)) of 96.2% and a residual activity (MAPKAPK2 (human)) of 101%. The residual activity (JAK3 JH1 JH2 (human)) was 77%, the residual activity (PBK (human)) was 86.3% and the residual activity (TXK (human)) was 90.3%. The residual activity (FLT3 (human)) was 8.19%, the residual activity (SRPK3 (human)) was 89.2% and the residual activity (TSSK1B (human)) was 86.5%. For the same molecule, the residual activity (MAP3K8 (human)) was 89%, the residual activity (TEK (human)) was 93.8% and the residual activity (PAK1 (human)) was 87.8%. It also gave a residual activity (MAP3K9 (human)) of 7.57%, a residual activity (FYN (human)) of 95.2% and a residual activity (CDK5 CDK5R1 p35 (human)) of 44.1%. The residual activity (MAP3K5 (human)) was 94.9%, the residual activity (TGFBR1 (human)) was 96.9% and the residual activity (NEK7 (human)) was 96.8%. The residual activity (PLK2 (human)) was 93.7%, the residual activity (MARK3 (human)) was 57.3% and the residual activity (DAPK1 (human)) was 73.5%. The residual activity (ACVR1B (human)) was 101%, the residual activity (IGF1R (human)) was 15% and the residual activity (CLK1 (human)) was 97%.
